Here are results for two compounds from publication PMC11561307, “Ultra-inert lanthanide chelates as mass tags for multiplexed bioanalysis” (Nature Communications, 2024).

Data set [1] can be described thus: Epimerization of BocCys{Lu} diastereomers followed by 1H NMR. Type of data set: physicochemical. The following applies: Supp. Fig. 22B, chirality inversion. From the text:
The ClickZip chelates are inherently chiral, with defined rotation of the pendant arms (Λ or Δ) and of the four ethylene units in the cyclen ring (λλλλ or δδδδ), analogous to the DOTA system[15],[27],[34]. However, in contrast to DOTA, they only adopt enantiomeric Λλλλλ and Δδδδδ forms with twisted-square antiprismatic (TSA) arrangements (Fig. 4). To probe whether these enantiomers can interconvert, we modified {Lu} with L-cysteine residues to produce a pair of distinguishable diastereomers. […] The enantiomers of {M} can thus be regarded either as one or two compounds, depending on the time scale.
Fig. 4 Chirality of ClickZip chelates. Inherent chirality of the molecules is given by rotation of the pendant arms (Λ or Δ) and of the four ethylene units in the cyclen ring (λλλλ or δδδδ). In theory, four isomers are possible: two twisted square antiprismatic (TSA) enantiomers (Λλλλλ and Δδδδδ), and two square antiprismatic (SA) enantiomers (Δλλλλ and Λδδδδ). The ClickZip chelates exclusively adopt the TSA arrangements Λλλλλ and Δδδδδ, which were observed together in all solid-state structures as well as in solution. These two forms interconvert on the time scale of hours at 37 °C (Supplementary Fig. 22). Both enantiomers shown here were found in the crystal structure of [{Lu}]^+[ClO4]^−·5H2O. Thermal ellipsoids were set at 50% probability.
Supplementary Fig. 97. Synthesis of BocCys {Lu} and its epimer separation. In a glass vial (4 mL), [Cl{Lu}] +[T FA ]−·5.1H2O (4.0 mg; 4.2 µmol; 1.0 equiv.) was dissolved in DMSO (160 µL) followed by addition of N-Boc-cysteine (200 mM in DMSO; 31 µL; 6.2 µmol; 1.5 equiv.) and DIPEA (7.3 µL; 42 µmol; 10 equiv.) and the resulting solution was stirred for 16 h at 40 °C. Mixture (containing racemic mixture of BocCys {Lu} epimers) was then diluted with DMSO (0.5 mL) and filtered through syringe microfilter (RC). Filtrate was then directly purified by preparative HPLC […]
Fractions with epimer A (front part of the first eluting peak) and B (latter part of the second eluting peak) were quickly freezed and directly lyophilized. The resulting solids were dissolved in 500 μL of deuterated 50 mM MOPS/NaOD buffer (formal pH 7.4; obtained from MOPS/NaOH buffer of such pH by multiple evaporation/D2O resupply cycles). Epimer A (obtained in slightly higher epimeric purity than epimer B) was used for continuous 1H NMR epimerization study at 37 °C (Supplementary Fig. 22) while epimer B was incubated concurrently under identical conditions on heated magnetic stirrer. Conversion: ≥95% (based on Cl {Lu}).

Data set [2] is described as follows: Hydrolysis of ClickZip conjugates with model hexapeptide in HCl. The data set is classed as physicochemical. The following applies: 0.5 mM conjugate in 2 M HCl at 80 °C; HPLC 285 nm; Y value after 4 d. The procedure:
While the acid-assisted dechelation of lanthanide DOTA chelates proceeds with a rate similar to hydrolysis of a peptide bond[24], the ultra-inert ClickZip chelates of Lu^III and near lanthanides should outlast complete hydrolysis of peptides and proteins. To test this, we prepared model hexapeptide conjugates with two ClickZip derivatives, HO2CPh{Ln} or HO2CBn{Ln}, which differed in their amide linkage to the peptide N-end (Fig. 6). Hydrolysis in 2 M HCl at 80 °C digested the peptide to individual amino acids; the chelates were cleaved from the peptide with no loss of the metal (Lu^III or Tm^III), or only small loss (5% for Y^III chelate).
Fig. 6 ClickZip and peptide bond stability comparison. Hydrolysis of ClickZip conjugates with model hexapeptide AYFHVG-NH2 connected by either aromatic or aliphatic amide bonds in strong acid. Conditions: 0.5 mM {Ln}PhCO-AYFHVG-NH2 or {Ln}BnCO-AYFHVG-NH2 in 2 M HCl at 80 °C. Analysis: λ = 285 nm (HPLC, H2O–MeCN, formic acid additive). […] The hydrolysis is faster for {Ln}BnCO-AYFHVG-NH2 species connected to the peptide via aliphatic amide moiety (n = 1) where HO2CBn{Ln} is formed quantitatively after 1 d. […] Nevertheless, prolonged reaction time led to quantitative formation of HO2CPh{Ln}. […]

Turning to `O=C(CN1CC2CC(=O)Nc3cccc1c32)Nc1ccc2c(c1)C[C@]1(C2)C(=O)Nc2ncccc21` (single isomer, unassigned) [epimer A], the “abundance, % of epimer” value in data set [1] (0.757 h) came to 89.6%; in data set [1] (0.913 h), 83.6%; in data set [1] (1.220 h), 84.0%; in data set [1] (1.376 h), 90.7%; in data set [1] (1.532 h) it was 83.1%; in data set [1] (1.735 h), 83.8%. Also, the “abundance, % of epimer” value in data set [1] (1.891 h) stood at 74.9%; in data set [1] (2.467 h), 74.2%; in data set [1] (2.641 h), 78.5%; in data set [1] (2.985 h), 70.9%; in data set [1] (3.611 h) it was 62.0%; in data set [1] (4.238 h), 64.6%. For the same compound, the “abundance, % of epimer” value in data set [1] (4.864 h) came to 63.0%; in data set [1] (5.489 h) it was 63.7%; in data set [1] (6.704 h) it was 52.8%; in data set [1] (7.918 h) it was 58.7%; in data set [1] (9.132 h), 55.2%; in data set [1] (10.346 h), 50.5%. In addition, the “abundance, % of epimer” value turned out to be 49.5% in data set [1] (11.560 h), 50.6% in data set [1] (12.775 h), 49.2% in data set [1] (13.988 h) and 50.3% in data set [1] (17.779 h).
With “{Y}PhCO-AYFHVG-NH2 [model hexapeptide conjugate with {Y} tag, aromatic amide]”, the “loss (leak) of metal ion during hydrolysis of hexapeptide conjugate” value in data set [2] is ~ 5%.
